# Activity calls are given as the source filed them. The calls are words filed in the database; no cut-off is given here.
# How the values were obtained:
# Rattus norvegicus [1] = experiment: Anticonvulsant activity in maximal electroshock induced seizure Sprague-Dawley rat model assessed as suppression in hindlimb tonic extension at 30 mg/kg, po measured at 1 hr post dose; type: functional, organism-based
# Rattus norvegicus [2] = experiment: Neurotoxicity in Sprague-Dawley rat assessed as behavioral change at 30 mg/kg, ip measured at 0.5 hrs post dose; type: toxicity, organism-based; settings: in vivo
# Rattus norvegicus [3] = experiment: Neurotoxicity in Sprague-Dawley rat assessed as behavioral change at 30 mg/kg, ip measured at 1 hr post dose; type: toxicity, organism-based; settings: in vivo
# Rattus norvegicus [4] = experiment: Neurotoxicity in Sprague-Dawley rat assessed as behavioral change at 30 mg/kg, ip measured at 4 hrs post dose; type: toxicity, organism-based; settings: in vivo
# Mus musculus [5] = experiment: Neurotoxicity in po dosed mouse assessed as induction of motor impairment by measuring time to peak effect by rotarod method; type: toxicity, organism-based; settings: in vivo
# Rattus norvegicus [6] = experiment: Anticonvulsant activity in po dosed pentylenetetrazole induced seizure Sprague-Dawley rat model assessed as no observable episode of clonic convulsion of at least 5 secs by measuring time to peak effect; type: functional
# Rattus norvegicus [7] = experiment: Anticonvulsant activity in po dosed pentylenetetrazole induced seizure Sprague-Dawley rat model assessed as no observable episode of clonic convulsion of at least 5 secs; type: functional
# [8] = Protection index, ratio of TD50 for neurotoxicity in po dosed Sprague-Dawley rat model to ED50 for po dosed pentylenetetrazole induced seizure Sprague-Dawley rat model; type: toxicity, organism-based; settings: in vivo, read-out: Ratio TD50/ED50
# [9] = biological target: Type-2 angiotensin II receptor (Homo sapiens) (UniProt P50052); experiment: Displacement of [125I]CGP 42112A from human recombinant AT2 receptor expressed in HEK293 cells at 100 uM measured after 4 hrs by scintillation counting method relative to control; type: cell-based
# Mus musculus [10] = experiment: Anticonvulsant activity in pentylenetetrazole induced seizure mouse model assessed as no observable episode of clonic convulsion of at least 5 secs at 100 mg/kg, ip measured at 0.5 hrs post dose; type: functional, organism-based
# Mus musculus [11] = experiment: Anticonvulsant activity in pentylenetetrazole induced seizure mouse model assessed as no observable episode of clonic convulsion of at least 5 secs at 300 mg/kg, ip measured at 4 hrs post dose; type: functional, organism-based
# [12] = biological target: Gastrin/cholecystokinin type B receptor (Homo sapiens) (UniProt P32239); experiment: Displacement of [125I]CCK-8s from human recombinant CCK2 receptor expressed in CHO cells at 100 uM measured after 60 mins by scintillation counting method relative to control; type: cell-based
# [13] = biological target: Muscarinic acetylcholine receptor M1 (Homo sapiens) (UniProt P11229); experiment: Displacement of [3H]pirenzepine from human recombinant M1 receptor expressed in CHO cells at 100 uM measured after 60 mins by scintillation counting method relative to control; type: cell-based
# Rattus norvegicus [14] = experiment: Anticonvulsant activity in maximal electroshock induced seizure Sprague-Dawley rat model assessed as suppression in hindlimb tonic extension at 30 mg/kg, ip measured at […] post dose; type: functional, organism-based
# [15] = biological target: Galanin receptor type 2 (Homo sapiens) (UniProt O43603); experiment: Displacement of [125I]galanin from human recombinant GAL2 receptor expressed in CHO cells at 100 uM measured after 120 mins by scintillation counting method relative to control; type: cell-based
# Rattus norvegicus [16] = organism: Rattus norvegicus; experiment: Displacement of [3H]a,b-MeATP from rat urinary bladder P2X receptor at 100 uM measured after 120 mins by scintillation counting method relative to control
# [17] = biological target: 5-hydroxytryptamine receptor 3A (Homo sapiens) (UniProt P46098); experiment: Displacement of [3H]BRL 43694 from human recombinant 5HT3 receptor expressed in CHO cells at 100 uM measured after 120 mins by scintillation counting method relative to control; type: cell-based
# Chain of 5-hydroxytryptamine receptor 3A (Homo sapiens) (P46098 whole entry): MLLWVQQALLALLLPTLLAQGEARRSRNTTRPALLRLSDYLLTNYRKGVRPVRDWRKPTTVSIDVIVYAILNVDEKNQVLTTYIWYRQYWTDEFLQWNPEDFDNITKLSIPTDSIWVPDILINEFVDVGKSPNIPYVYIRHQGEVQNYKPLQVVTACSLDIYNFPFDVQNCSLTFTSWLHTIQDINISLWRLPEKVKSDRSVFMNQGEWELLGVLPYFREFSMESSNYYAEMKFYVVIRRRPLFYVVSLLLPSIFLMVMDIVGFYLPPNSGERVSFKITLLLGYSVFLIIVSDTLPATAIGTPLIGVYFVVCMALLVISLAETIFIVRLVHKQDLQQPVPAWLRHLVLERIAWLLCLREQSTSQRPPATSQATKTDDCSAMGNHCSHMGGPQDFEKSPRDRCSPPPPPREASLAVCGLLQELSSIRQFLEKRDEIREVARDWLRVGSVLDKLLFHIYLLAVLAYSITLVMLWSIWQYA
# Chain of Gastrin/cholecystokinin type B receptor (Homo sapiens) (P32239 whole entry): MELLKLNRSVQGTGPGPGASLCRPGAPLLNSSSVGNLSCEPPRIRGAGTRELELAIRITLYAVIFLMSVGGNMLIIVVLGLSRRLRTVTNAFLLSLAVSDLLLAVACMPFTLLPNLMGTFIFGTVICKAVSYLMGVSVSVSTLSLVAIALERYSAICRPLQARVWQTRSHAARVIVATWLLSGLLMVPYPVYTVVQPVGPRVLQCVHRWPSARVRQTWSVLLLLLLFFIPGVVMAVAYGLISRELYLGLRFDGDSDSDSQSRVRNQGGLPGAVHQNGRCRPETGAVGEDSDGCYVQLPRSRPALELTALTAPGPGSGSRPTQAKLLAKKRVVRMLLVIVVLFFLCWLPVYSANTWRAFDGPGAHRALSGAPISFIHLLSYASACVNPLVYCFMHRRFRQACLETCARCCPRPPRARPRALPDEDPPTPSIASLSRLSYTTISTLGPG
# Chain of Type-2 angiotensin II receptor (Homo sapiens) (P50052 whole entry): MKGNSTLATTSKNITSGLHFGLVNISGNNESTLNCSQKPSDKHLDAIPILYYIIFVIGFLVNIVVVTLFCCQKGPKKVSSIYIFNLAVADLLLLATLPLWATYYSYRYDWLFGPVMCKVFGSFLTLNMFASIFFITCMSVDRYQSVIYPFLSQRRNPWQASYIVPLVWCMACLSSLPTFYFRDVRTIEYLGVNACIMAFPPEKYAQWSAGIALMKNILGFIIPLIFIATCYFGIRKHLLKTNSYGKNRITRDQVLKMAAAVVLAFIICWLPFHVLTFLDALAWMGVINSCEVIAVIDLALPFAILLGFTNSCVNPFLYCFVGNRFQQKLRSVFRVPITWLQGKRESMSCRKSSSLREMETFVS
# Chain of Galanin receptor type 2 (Homo sapiens) (O43603 whole entry): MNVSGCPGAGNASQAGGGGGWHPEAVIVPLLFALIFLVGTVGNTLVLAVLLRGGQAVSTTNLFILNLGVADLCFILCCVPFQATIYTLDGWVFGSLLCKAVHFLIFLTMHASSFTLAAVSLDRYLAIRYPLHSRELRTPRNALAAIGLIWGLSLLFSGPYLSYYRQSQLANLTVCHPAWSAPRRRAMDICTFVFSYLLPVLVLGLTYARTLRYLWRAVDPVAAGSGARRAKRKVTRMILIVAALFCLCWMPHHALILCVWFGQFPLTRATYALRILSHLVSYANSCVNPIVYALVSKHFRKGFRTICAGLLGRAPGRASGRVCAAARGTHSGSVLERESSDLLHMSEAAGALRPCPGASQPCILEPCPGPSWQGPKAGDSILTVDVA
# Chain of Muscarinic acetylcholine receptor M1 (Homo sapiens) (P11229 whole entry): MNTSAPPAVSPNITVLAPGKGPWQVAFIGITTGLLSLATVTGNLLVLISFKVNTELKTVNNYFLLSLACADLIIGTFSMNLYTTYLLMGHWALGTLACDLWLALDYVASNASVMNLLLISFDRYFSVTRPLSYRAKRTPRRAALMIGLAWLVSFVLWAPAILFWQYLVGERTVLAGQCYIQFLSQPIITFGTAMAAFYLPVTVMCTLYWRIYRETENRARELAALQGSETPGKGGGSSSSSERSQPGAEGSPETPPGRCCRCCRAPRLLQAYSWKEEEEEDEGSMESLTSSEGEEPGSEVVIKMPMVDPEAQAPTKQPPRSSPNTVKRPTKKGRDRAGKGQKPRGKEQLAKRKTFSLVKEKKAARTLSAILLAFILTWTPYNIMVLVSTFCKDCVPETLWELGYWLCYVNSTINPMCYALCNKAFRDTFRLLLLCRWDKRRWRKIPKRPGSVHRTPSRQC
compound,measurement,setting,value
Cc1ccccc1/C=C/C(=O)N[C@@H](C)CO,Activity,Rattus norvegicus [1],Active
same,Activity,Rattus norvegicus [2],Non-Toxic
same,Activity,Rattus norvegicus [3],Non-Toxic
same,Activity,Rattus norvegicus [4],Non-Toxic
same,Time,Mus musculus [5],0.25 h
same,Time,Rattus norvegicus [6],1 h
same,ED50,Rattus norvegicus [7],69.6 mg/kg
same,selectivity ratio,[8],> 7.18
same,inhibition,[9],2.6%
CC(O)CNC(=O)/C=C/c1ccc(Cl)cc1 (configuration not stated),Activity,Mus musculus [10],Active
same,Activity,Mus musculus [11],Active
same,inhibition,[12],-9.8%
same,inhibition,[13],-9.8%
CCC(CO)NC(=O)/C=C/c1ccc(Cl)cc1 (configuration not stated),Activity,Rattus norvegicus [14],Active
same,inhibition,[15],-7.3%
same,inhibition,Rattus norvegicus [16],-8.2%
same,inhibition,[17],-1.6%
